According to patent US12247227B2, “Methods relating to intestinal organ-on-a-chip” (PRESIDENT AND FELLOWS OF HARVARD COLLEGE, priority 2016, dated 2025):

What was measured:
[1] = test system: enteroid fragments (primary intestinal epithelial cells); assay: Epithelial cell recovery and on-chip seeding of enteroid fragments generated with or without ROCK inhibitor; format: cell-based, human; conditions: ROCK inhibitor present during fragment isolation and seeding, images 24 h post seeding (FIG. 15)
Experimental: Representative images showing device seeded with enteroid fragments generated in the absence (−ROCK inhibitor) or presence (+ROCK inhibitor) were acquired 24 h post seeding. Equal cell seeding density and time was used for both of the conditions tested.
Prior to the establishment of primary cell culture in organ-on-chip microfluidic device, the hydrophobic PDMS surface is activated by oxygen plasma treatment and aminized with (3-aminopropyl)[…] silane (APTMS, SIGMA 281778). This surface functionalization allows for an improved cell attachment and facilitates long-term culture of intestinal stem cells and their progeny. Next ECM coating solution composed of 1% Matrigel (BD Corning, 356231) and 200 ug/ml Collagen I (BD Corning 3.36 mg/mL; 354226) is introduced in both the upper and the lower microfluidic channel and device is placed in a humidified 37° C. incubator for the minimum of 2 hours. Then human intestinal microvascular endothelial cells, e.g., purchased from ScienCell (Catalog #2900), are seeded on the bottom side of the porous stretchable PDMS membrane that separates two parallel microchannels of the organ-on-chip device. […]

[2] = test system: small intestine-on-chip (primary human intestinal epithelium with or without HIMEC endothelium)
Description: As used herein, “differentially permeable”, e.g., in reference to an intestinal barrier, refers to the intestinal barrier displaying a resistance to the passage of certain molecules as compared to monolayers of, e.g., endothelial cells or undifferentiated intestinal epithelial cells. […] Such assays are described in the Examples herein in detail. Briefly, the apical side of the intestinal barrier is contacted with one or more tracer molecules and the concentration of the tracer later found on the basal side of the intestinal barrier.
• PROCEDURE. […]
Intestinal functional assessment and cytokine measurements. […] The concentration of dye that diffused through the membrane into endothelial channel was measured in the effluent, and apparent paracellular permeability (Papp) was calculated using the following formula:
[formula] where Vrec is volume receiver (endothelial compartment), Crec concentration receiver, A the seeded area and Cdon concentration donor (epithelial compartment). Cytokines released in the medium were quantified using U-PLEX Biomarker Assays for human Fractalkine, GM-CSF, IFN-γ, IL-1α, IL-1β, IL-6, IL-8, and IL-10 (Mesoscale Discovery).

Optimal Papp (apparent permeability) for small intestine-on-chip [2] [nm/s]	Papp [2]	Compound	epithelial cell recovery and on-chip seeding [1]
		C[C@@H](N)[C@H]1CC[C@H](C(=O)Nc2ccncc2)CC1 [ROCK inhibitor, Y-27632]	Improved epithelial cells recovery and on-chip seeding
~10	1-2×10^−6	Lucifer Yellow	
